In ChEMBL document CHEMBL1201862, “PubChem BioAssay data set” (2004):
Each block holds one compound with its values, some of them ahead of it. Active and inactive are the calls of the source.

Columns and labels:
[1] = biological target: G-protein coupled receptor 55 (Homo sapiens, UniProt Q9Y2T6); assay: GPR55 antagonists blocking LPI-driven arrestin recruitment, primary screen, imaging, U2OS, beta-arrestin-GFP, LPI agonist (AID 2013); format: functional;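 also: antagonist potency measured as reduced agonist-driven arrestin aggregation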
Chain of G-protein coupled receptor 55 (Q9Y2T6 whole entry): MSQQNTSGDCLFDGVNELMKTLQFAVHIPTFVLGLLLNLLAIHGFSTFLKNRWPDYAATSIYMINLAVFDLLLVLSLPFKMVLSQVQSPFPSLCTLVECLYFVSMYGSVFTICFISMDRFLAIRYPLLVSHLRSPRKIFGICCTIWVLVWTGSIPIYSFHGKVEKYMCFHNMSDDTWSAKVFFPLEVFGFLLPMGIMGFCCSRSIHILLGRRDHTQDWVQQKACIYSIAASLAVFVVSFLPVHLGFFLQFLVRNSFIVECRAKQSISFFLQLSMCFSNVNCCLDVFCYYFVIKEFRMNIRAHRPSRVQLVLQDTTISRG

Large T antigen = Large T antigen (Simian virus 40, UniProt P03070); format: functional, Betapolyomavirus macacae;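 also: Confirmatory-stage PubChem screen for compounds that inhibit SV40 T antigen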
Chain of Large T antigen (P03070 whole entry): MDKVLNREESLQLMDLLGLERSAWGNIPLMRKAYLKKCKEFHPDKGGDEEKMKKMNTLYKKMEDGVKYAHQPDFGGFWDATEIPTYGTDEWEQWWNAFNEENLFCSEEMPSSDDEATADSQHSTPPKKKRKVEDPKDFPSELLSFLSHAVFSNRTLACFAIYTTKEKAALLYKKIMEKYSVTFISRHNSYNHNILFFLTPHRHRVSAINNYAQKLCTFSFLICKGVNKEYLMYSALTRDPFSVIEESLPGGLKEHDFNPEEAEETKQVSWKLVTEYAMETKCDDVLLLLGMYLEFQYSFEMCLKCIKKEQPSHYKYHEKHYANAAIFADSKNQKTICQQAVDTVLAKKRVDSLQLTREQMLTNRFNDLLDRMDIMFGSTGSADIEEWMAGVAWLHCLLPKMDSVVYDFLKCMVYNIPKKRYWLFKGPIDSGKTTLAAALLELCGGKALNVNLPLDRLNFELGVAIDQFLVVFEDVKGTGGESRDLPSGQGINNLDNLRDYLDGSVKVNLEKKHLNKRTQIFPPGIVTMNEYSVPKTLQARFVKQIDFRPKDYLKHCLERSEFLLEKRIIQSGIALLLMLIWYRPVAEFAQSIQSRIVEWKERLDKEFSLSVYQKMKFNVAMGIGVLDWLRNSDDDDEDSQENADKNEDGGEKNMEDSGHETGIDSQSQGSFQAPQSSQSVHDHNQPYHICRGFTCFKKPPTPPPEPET

[2] = biological target: E3 ubiquitin-protein ligase Mdm2 (Homo sapiens, UniProt Q00987); assay: enhancers of MDM2-luciferase reporter signal, concentration-effect titration, project on inhibitors of MDM2 ubiquitin ligase, cellular assay, luminescent readout, 384-well plate format (AID 1394); format: functional;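 also: MDM2 E3 inhibitors raise luminescence so EC50 is for signal enhancement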
Chain of E3 ubiquitin-protein ligase Mdm2 (Q00987 whole entry): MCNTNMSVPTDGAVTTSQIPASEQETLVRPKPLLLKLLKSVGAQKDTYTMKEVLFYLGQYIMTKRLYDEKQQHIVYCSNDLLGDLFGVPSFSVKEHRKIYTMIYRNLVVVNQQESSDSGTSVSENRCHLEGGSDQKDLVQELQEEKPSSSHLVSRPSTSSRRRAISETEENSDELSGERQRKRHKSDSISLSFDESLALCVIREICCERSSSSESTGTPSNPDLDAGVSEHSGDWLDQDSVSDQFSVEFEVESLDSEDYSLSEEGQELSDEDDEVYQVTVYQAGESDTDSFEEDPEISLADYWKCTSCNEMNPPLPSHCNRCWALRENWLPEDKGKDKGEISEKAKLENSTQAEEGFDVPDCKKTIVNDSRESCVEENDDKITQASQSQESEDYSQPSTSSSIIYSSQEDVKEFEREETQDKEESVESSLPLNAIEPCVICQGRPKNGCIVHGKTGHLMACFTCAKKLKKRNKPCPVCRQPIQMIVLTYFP

[3] = HEK293T cell cytotoxicity, dose response, cytotoxicity control, CellTiter-Glo luminescence, dry powder, set 2 (AID 720595); format: functional, cell-based; details: HEK293
[4] = HeLa cell cytotoxicity, dose response, cytotoxicity control, CellTiter-Glo luminescence, dry powder, set 2 (AID 720593); format: functional, cell-based
[5] = biological target: T1, Mannose-6-phosphate isomerase (Homo sapiens, UniProt P34949); assay: human PMI inhibitors, high substrate, primary screen, biochemical, fluorescence intensity, high mannose 6-phosphate (AID 1220)
T1 sequence (P34949 whole entry): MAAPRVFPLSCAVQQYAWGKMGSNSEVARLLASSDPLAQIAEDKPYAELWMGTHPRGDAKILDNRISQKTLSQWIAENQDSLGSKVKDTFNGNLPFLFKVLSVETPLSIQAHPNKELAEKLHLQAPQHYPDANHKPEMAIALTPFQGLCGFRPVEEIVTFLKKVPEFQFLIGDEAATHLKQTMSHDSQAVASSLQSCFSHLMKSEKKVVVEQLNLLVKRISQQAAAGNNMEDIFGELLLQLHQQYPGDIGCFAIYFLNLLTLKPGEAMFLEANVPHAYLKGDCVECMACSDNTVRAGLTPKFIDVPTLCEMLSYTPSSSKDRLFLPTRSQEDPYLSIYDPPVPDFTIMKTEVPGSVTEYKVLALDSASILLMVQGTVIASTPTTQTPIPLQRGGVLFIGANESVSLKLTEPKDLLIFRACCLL

Vero = Vero cell cytotoxicity, cytotoxicity control for flavivirus capping enzyme inhibitors (AID 588742); format: functional; details: Chlorocebus sabaeus
[6] = inhibitors of Vif binding to APOBEC3G peptide, primary screen, biochemical, TR-FRET, GST-Vif 1-94, biotin-A3G peptide, dose response retest (AID 1117319); format: functional;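 also: TR-FRET signal of purified GST-Vif binding a biotinylated A3G peptide; inhibitors lower the FRET signal by blocking Vif and A3G binding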
[7] = biological target: T2, Low molecular weight phosphotyrosine protein phosphatase (Homo sapiens, UniProt P24666); assay: LMPTP phosphatase inhibitors, colorimetric pNPP readout, dose response, orthogonal assay, biochemical, absorbance, pNPP substrate, LMPTP-A isoform, set 2 (AID 743308); format: functional
T2 sequence (P24666 whole entry): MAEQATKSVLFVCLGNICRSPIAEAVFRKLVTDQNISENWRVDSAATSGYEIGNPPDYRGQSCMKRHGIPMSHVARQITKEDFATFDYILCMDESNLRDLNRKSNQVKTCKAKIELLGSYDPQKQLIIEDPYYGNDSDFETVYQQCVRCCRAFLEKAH

[8] = biological target: T2, Low molecular weight phosphotyrosine protein phosphatase; assay: LMPTP phosphatase inhibitors, dose response, biochemical, OMFP substrate, fluorescence intensity, set 2 (AID 743307); format: functional
Transthyretin = Transthyretin (Homo sapiens, UniProt P02766); assay: Luminescence-based cell-based high throughput dose response assay to identify activators of Transthyretin (TTR) transcription.; format: functional

IC50 [6]: > 100 µM (active)
SMILES: CC(C)(C)CN1CCNC(=O)C1CC(=O)NCCc1ccccc1C(F)(F)F (stereo unspecified)

IC50 [7]: > 80 µM (inactive)
IC50 [8]: > 80 µM (inactive)
SMILES: c1ccc(-c2nc(N3CCOCC3)c3ccccc3n2)cc1

EC50 (Transthyretin): > 167 µM (inactive)
SMILES: Cc1ccc([C@H]2C[C@@H](O)[C@H](n3cc(-c4ccc(F)cc4)nn3)CN2C(=O)c2cccs2)cc1

Second part, the compound before the results:

SMILES: CC1=NN(c2cccc(C(=O)O)c2)C(=O)/C1=C\C=C/c1ccccc1
IC50 [1]: 3.3 µM (active)
IC50 (Large T antigen): 20.4 µM (active)
EC50 [2]: 4.82 µM (active)

SMILES: O=C(Cc1ccccc1)NC(c1ccco1)c1ccc2cccnc2c1O (stereo unspecified)
AC50 [3]: 2.56 µM (active)
AC50 [4]: 18.1 µM (active)

SMILES: CCc1cccc(C)c1N=C(S)NCC1CCN(c2ccc(OC)cc2)C1 (stereo unspecified)
IC50 [5]: > 50 µM (not active)
CC50 (Vero): > 40 µM (active)
